Measured values: patent publication US9498483B2, “2,3,5-trisubstituted thiophene compounds and uses thereof” (priority 2010, dated 2016)

Legend:
[1] = test system: HCV replicon I389luc-ubi-neo/NS3-3′/ET in ET (Huh-lucubineo-ET) cells; experiment: Replicon assay (Biological Example 2), luciferase readout; type: cell-based; details: Hepatitis C virus
How it was run: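 EC50 values come from Hill fits of % inhibition of replicon-driven firefly luciferase, relative to no-compound wells. Compounds were serially diluted (10 points, 3-fold, 0.1 nM–50 μM final, 0.5% DMSO) onto ET replicon cells and read after 48 h.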

[2] = target: T1, HCV polymerase (Hepatitis C virus genotype 1b, UniProt Q9WMX2); experiment: Polymerase assay of Biological Example 1 (IC50 values of Table 3); type: biochemical; details: IC50 values of Table 3, polymerase assay of Biological Example 1; read-out: NS5B-enzyme3
T1 construct: (His)6 (C); made in house; host or cells: XL-1 cells (E. coli, by own knowledge)

[3] = ET cells, luciferase activity 48 hours after compound

SMILES	IC50 [1, 3]	IC50 [2]	IC50 ([1]; between 100 nM and 5.0 uM)
O=C(O)c1sc(-c2ccc(F)cc2)cc1N1C(=O)CN(S(=O)(=O)c2ccc(N3CCC(F)(F)C3)nc2)C[C@H]1C1CCCCC1 [Compound 286, 3-{(R)-2-Cyclohexyl-4-[6-(3,3-difluoro-pyrrolidin-1-yl)-pyridine-3-sulfonyl]-6-oxo-piperazin-1-yl}-5-(4-fluoro-phenyl)-thiophene-2-carboxylic acid]	≤ 100 nM	1 nM	–
O=C(O)c1sc(-c2ccc(F)cc2)cc1N1C(=O)CN(S(=O)(=O)c2ccc(N3CC[C@H](F)C3)nc2)C[C@H]1C1CCCCC1 [Compound 287, 3-{(R)-2-Cyclohexyl-4-[6-((S)-3-fluoro-pyrrolidin-1-yl)-pyridine-3-sulfonyl]-6-oxo-piperazin-1-yl}-5-(4-fluoro-phenyl)-thiophene-2-carboxylic acid]	≤ 100 nM	1 nM	–
CC1(O)CCN(c2ccc(S(=O)(=O)N3CC(=O)N(c4cc(-c5ccc(F)cc5)sc4C(=O)O)[C@H](C4CCCCC4)C3)cn2)C1 (stereo partly drawn) [Compound 288, 3-{(R)-2-Cyclohexyl-4-[6-(3-hydroxy-3-methyl-pyrrolidin-1-yl)-pyridine-3-sulfonyl]-6-oxo-piperazin-1-yl}-5-(4-fluoro-phenyl)-thiophene-2-carboxylic acid]	≤ 100 nM	2 nM	–
Cc1ccc(-c2cc(N3C(=O)CN(S(=O)(=O)c4ccc(N5C[C@H]6C[C@@H]5CO6)nc4)C[C@H]3C3CCCCC3)c(C(=O)O)s2)cc1 [Compound 289, 3-{(R)-2-Cyclohexyl-4-[(1R,4R)-6-(2-oxa-5-aza-bicyclo[2.2.1]hept-5-yl)-pyridine-3-sulfonyl]-6-oxo-piperazin-1-yl}-5-p-tolyl-thiophene-2-carboxylic acid]	≤ 100 nM	1 nM	–
CC(C)(C)C#Cc1cc(N2C(=O)C(C)(C)OC[C@H]2C2CCCCC2)c(C(=O)O)s1 [Compound 290, 3-((R)-5-Cyclohexyl-2,2-dimethyl-3-oxomorpholin-4-yl)-5-(3,3-dimethyl-but-1-ynyl)-thiophene-2-carboxylic acid]	≤ 100 nM	2 nM	–
C[C@H]1OCC(=O)N(c2cc(C#CC(C)(C)C)sc2C(=O)O)[C@@H]1C1CCCCC1 [Compound 291, 3-((2R,3R)-3-Cyclohexyl-2-methyl-5-oxo-morpholin-4-yl)-5-(3,3-dimethyl-but-1-ynyl)-thiophene-2-carboxylic acid]	≤ 100 nM	8 nM	–
CC1(C)CCN(c2ccc(S(=O)(=O)N3CC(=O)N(c4cc(-c5ccc(Cl)cc5)sc4C(=O)O)[C@H](C4CCCCC4)C3)cn2)C1 [Compound 292, 5-(4-Chloro-phenyl)-3-{(R)-2-cyclohexyl-4-[6-(3,3-dimethyl-pyrrolidin-1-yl)-pyridine-3-sulfonyl]-6-oxo-piperazin-1-yl}-thiophene-2-carboxylic acid]	≤ 100 nM	2.3 nM	–
O=C(O)c1sc(-c2ccc(Cl)cc2)cc1N1C(=O)COC[C@H]1C1CCCCC1 [Compound 293, 5-(4-Chloro-phenyl)-3-((R)-3-cyclohexyl-5-oxo-morpholin-4-yl)-thiophene-2-carboxylic acid]	–	5 nM	100 to 5000 nM
CC(C)(C)C#Cc1cc(N2C(=O)C(CC(=O)N3CCOCC3)OC[C@H]2C2CCCCC2)c(C(=O)O)s1 (stereo partly drawn) [Compound 294, 3-[(R)-5-Cyclohexyl-2-(2-morpholin-4-yl-2-oxo-ethyl)-3-oxo-morpholin-4-yl]-5-(3,3-dimethyl-but-1-ynyl)-thiophene-2-carboxylic acid]	–	7 nM	100 to 5000 nM
Cc1ccc(-c2cc(N3C(=O)CN(S(=O)(=O)c4cnn(C)c4)C[C@H]3C3CCCCC3)c(C(=O)O)s2)cc1 [Compound 295, 3-[(R)-2-Cyclohexyl-4-(1-methyl-1H-pyrazole-4-sulfonyl)-6-oxo-piperazin-1-yl]-5-p-tolyl-thiophene-2-carboxylic acid]	≤ 100 nM	4 nM	–
CCn1cc(S(=O)(=O)N2CC(=O)N(c3cc(-c4ccc(C)cc4)sc3C(=O)O)[C@H](C3CCCCC3)C2)cn1 [Compound 296, 3-[(R)-2-Cyclohexyl-4-(1-ethyl-1H-pyrazole-4-sulfonyl)-6-oxo-piperazin-1-yl]-5-p-tolyl-thiophene-2-carboxylic acid]	≤ 100 nM	5 nM	–
Cc1ccc(-c2cc(N3C(=O)CN(S(=O)(=O)c4cn(C)c(C)n4)C[C@H]3C3CCCCC3)c(C(=O)O)s2)cc1 [Compound 298, 3-[(R)-2-Cyclohexyl-4-(1,2-dimethyl-1H-imidazole-4-sulfonyl)-6-oxo-piperazin-1-yl]-5-p-tolyl-thiophene-2-carboxylic acid]	≤ 100 nM	1 nM	–
CC(C)(C)C#Cc1cc(N2C(=O)C(CCCO)OC[C@H]2C2CCCCC2)c(C(=O)O)s1 (stereo partly drawn) [Compound 299, 3-[(R)-5-Cyclohexyl-2-(3-hydroxy-propyl)-3-oxo-morpholin-4-yl]-5-(3,3-dimethyl-but-1-ynyl)-thiophene-2-carboxylic acid]	≤ 100 nM	5 nM	–
Cc1ccc(-c2cc(N3C(=O)CN(S(=O)(=O)c4ccc(C(F)(F)F)nc4)C[C@H]3C3CCCCC3)c(C(=O)O)s2)cc1 [Compound 300, 3-[(R)-2-Cyclohexyl-6-oxo-4-(6-trifluoromethyl-pyridine-3-sulfonyl)-piperazin-1-yl]-5-p-tolyl-thiophene-2-carboxylic acid]	–	31 nM	100 to 5000 nM
Cc1ccc(-c2cc(N3C(=O)CN(S(=O)(=O)c4cnn(CC(C)C)c4)C[C@H]3C3CCCCC3)c(C(=O)O)s2)cc1 [Compound 301, 3-[(R)-2-Cyclohexyl-4-(1-isobutyl-1H-pyrazole-4-sulfonyl)-6-oxo-piperazin-1-yl]-5-p-tolyl-thiophene-2-carboxylic acid]	≤ 100 nM	4 nM	–
Cc1ccc(-c2cc(N3C(=O)CN(S(=O)(=O)c4ccc(C)nc4)C[C@H]3C3CCCCC3)c(C(=O)O)s2)cc1 [Compound 302, 3-[(R)-2-Cyclohexyl-4-(6-methyl-pyridine-3-sulfonyl)-6-oxo-piperazin-1-yl]-5-p-tolyl-thiophene-2-carboxylic acid]	≤ 100 nM	3 nM	–
Cc1ccc(-c2cc(N3C(=O)CN(S(=O)(=O)c4ccc(C(C)(C)C)nc4)C[C@H]3C3CCCCC3)c(C(=O)O)s2)cc1 [Compound 303, 3-[(R)-4-(6-tert-Butyl-pyridine-3-sulfonyl)-2-cyclohexyl-6-oxo-piperazin-1-yl]-5-p-tolyl-thiophene-2-carboxylic acid]	≤ 100 nM	4 nM	–
CCc1ccc(S(=O)(=O)N2CC(=O)N(c3cc(-c4ccc(C)cc4)sc3C(=O)O)[C@H](C3CCCCC3)C2)cn1 [Compound 304, 3-[(R)-2-Cyclohexyl-4-(6-ethyl-pyridine-3-sulfonyl)-6-oxo-piperazin-1-yl]-5-p-tolyl-thiophene-2-carboxylic acid]	≤ 100 nM	5 nM	–
Cc1ccc(-c2cc(N3C(=O)CN(S(=O)(=O)c4cnc(C)c(C)c4)C[C@H]3C3CCCCC3)c(C(=O)O)s2)cc1 [Compound 305, 3-[(R)-2-Cyclohexyl-4-(5,6-dimethyl-pyridine-3-sulfonyl)-6-oxo-piperazin-1-yl]-5-p-tolyl-thiophene-2-carboxylic acid]	≤ 100 nM	4 nM	–
COCCNCC1OC[C@@H](C2CCCCC2)N(c2cc(C#CC(C)(C)C)sc2C(=O)O)C1=O (stereo partly drawn) [Compound 307, 3-{(R)-5-Cyclohexyl-2-[(2-methoxy-ethylamino)-methyl]-3-oxo-morpholin-4-yl}-5-(3,3-dimethyl-but-1-ynyl)-thiophene-2-carboxylic acid]	≤ 100 nM	6 nM	–
CC(C)(C)C#Cc1cc(N2C(=O)OCCC2C2CCCCC2)c(C(=O)O)s1 (stereo not drawn) [Compound 308, 3-(4-Cyclohexyl-2-oxo-[1,3]oxazinan-3-yl)-5-(3,3-dimethyl-but-1-ynyl)-thiophene-2-carboxylic acid]	≤ 100 nM	14 nM	–
CC(C)(C)C#Cc1cc(N2C(=O)COC[C@H]2C2CCCCC2)c(C(=O)NS(C)(=O)=O)s1 [Compound 309, N-[3-((R)-3-Cyclohexyl-5-oxo-morpholin-4-yl)-5-(3,3-dimethyl-but-1-ynyl)-thiophene-2-carbonyl]-methanesulfonamide]	–	54 nM	100 to 5000 nM
CC(C)(C)C#Cc1cc(N2C(=O)C(CN3CCOCC3)OC[C@H]2C2CCCCC2)c(C(=O)O)s1 (stereo partly drawn) [Compound 310, 3-((R)-5-Cyclohexyl-2-morpholin-4-ylmethyl-3-oxo-morpholin-4-yl)-5-(3,3-dimethyl-but-1-ynyl)-thiophene-2-carboxylic acid]	≤ 100 nM	4 nM	–
CC(C)(C)C#Cc1cc(N2C(=O)[C@@](C)(CCCO)OC[C@H]2C2CCCCC2)c(C(=O)O)s1 [Compound 311, 3-[(2R,5R)-5-Cyclohexyl-2-(3-hydroxy-propyl)-2-methyl-3-oxo-morpholin-4-yl]-5-(3,3-dimethyl-but-1-ynyl)-thiophene-2-carboxylic acid]	≤ 100 nM	2 nM	–
CC(C)(C)C#Cc1cc(N2C(=O)[C@](C)(CC#N)OC[C@H]2C2CCCCC2)c(C(=O)O)s1 [Compound 312, 3-((2S,5R)-2-Cyanomethyl-5-cyclohexyl-2-methyl-3-oxo-morpholin-4-yl)-5-(3,3-dimethyl-but-1-ynyl)-thiophene-2-carboxylic acid]	≤ 100 nM	2 nM	–
CC(C)(C)C#Cc1cc(N2C(=O)C(O)CCC2C2CCCCC2)c(C(=O)O)s1 (stereo not drawn) [Compound 313, 3-(6-Cyclohexyl-3-hydroxy-2-oxo-piperidin-1-yl)-5-(3,3-dimethyl-but-1-ynyl)-thiophene-2-carboxylic acid]	≤ 100 nM	31.5 nM	–
Cc1ccc(-c2cc(N3C(=O)C(C)(C)OC[C@H]3C3CCCCC3)c(C(=O)O)s2)cc1 [Compound 314, 3-((R)-5-Cyclohexyl-2,2-dimethyl-3-oxo-morpholin-4-yl)-5-p-tolyl-thiophene-2-carboxylic acid]	≤ 100 nM	6 nM	–
